Measured values reported in patent publication US20250340570A1, “COMPOSITIONS USEFUL FOR MODULATING SPLICING” (Skyhawk Therapeutics, Inc., priority 2022, published 2025).

Key:
[1] = system: ATXN3 transcripts containing exon 4; assay: ATXN3 quantitative splicing assay (qPCR, E4E5 transcripts containing exon 4); format: cell-based; conditions: Human neuroblastoma SK-N-MC cells, 24 h treatment, qPCR primers/probe E4E5
Procedure: Human neuroblastoma SK-N-MC cells were plated in 384-well plates at 20,000 cells/well. Twenty-four hours after plating, cells were treated with compounds for 24 h at appropriate concentrations ranging from 30 μM to 0.6 nM (0.3% DMSO). Treated cells were lysed in 15 μL of lysis buffer, and cDNA was synthesized using the Fast Advanced Cells-to-Ct kit. Two μL of each cDNA was used in qPCR reactions to confirm the exon 4 skipped transcripts of ATXN3. A second set of primers/probe E4E5 was used to detect the transcripts containing exon 4. The third set of primers/probe E8E9 was used to detect total gene level of ATXN3. The qPCR reactions were prepared in 384-well plates in 10.L volume, using TaqMan™ Fast Advanced Master Mix with primers and probes shown in the table below. Reactions were run in a Quant Studio 6 qPCR instrument with default settings.
The primers and probes are listed below in Table 5.

[2] = system: total ATXN3 protein; assay: ATXN3 total protein assay (Mesoscale Discovery); format: cell-based; conditions: Human neuroblastoma SK-N-MC cells, 48 hours incubation, MSD assay
Procedure: Human neuroblastoma SK-N-MC cells were seeded at 10,000 cells/well in 384 well plates one day prior to compound treatment. The concentrations of compounds were tested at appropriate doses ranging from 30 µM to 0.6 nM. After incubation for 48 hours, the cells were lysed with 25.L of lysis buffer containing protease inhibitors, and total ATXN3 protein levels were assessed by Mesoscale Discovery (MSD) assay developed with one pair of and-ATXN3 antibodies. The capture and detect antibodies were raised in mouse and rabbit respectively. Anti-rabbit MSD-ST antibody was used for secondary antibody.
ATXN3 recombinant protein was used for standards. The readouts were captured with 35.L of MSD read buffer and multi-array 384-well high binding plates.

Compound	IC50 [1] [µM]	IC50 [2] [µM]
C[C@@H](F)[C@H](N)Cc1sc2c(NCc3cccs3)snc2c1Cl [Compound 75, 7-[(2R,3R)-2-amino-3-fluorobutyl]-8-chloro-4-thenylamino-3,6-dithia-2-azabicyclo[3.3.0]octa-1,4,7-triene]	0.101 to 0.5	0.501 to 5
C[C@H](N)Cc1sc2c(NCc3nccs3)snc2c1Cl [Compound 76, 7-[(S)-2-aminopropyl]-8-chloro-4-{[(1,3-thiazol-2-yl)methyl]amino}-3,6-dithia-2-azabicyclo[3.3.0]octa-1,4,7-triene]	0.101 to 0.5	0.101 to 0.5
CC(=O)N[C@@H](C)Cc1sc2c(NCc3cccs3)snc2c1C [Compound 79, N-[(2S)-1-{6-methyl-3-[(thiophen-2-ylmethyl)amino]thieno[3,2-c][1,2]thiazol-5-yl}propan-2-yl]acetamide]	10 to 40	10 to 40
N[C@H](Cc1sc2c(NCc3cccs3)snc2c1Br)C1CC(F)(F)C1 [Compound 80, 7-[(R)-2-amino-2-(3,3-difluorocyclobutyl)eth-yl]-8-bromo-4-thenylamino-3,6-dithia-2-azabicyclo[3.3.0]octa-1,4,7-triene]	0.501 to 5	5 to 10
C[C@H](N)Cc1sc2c(NCc3ccco3)snc2c1C(F)(F)F [Compound 81, 7-[(S)-2-aminopropyl]-4-(furfurylamino)-8-(trifluoromethyl)-3,6-dithia-2-azabicyclo[3.3.0]octa-1,4,7-triene]	0.501 to 5	0.501 to 5
FC(F)(F)c1csc2c(NCc3ccco3)snc12 [Compound 82, (furfuryl){8-(trifluoromethyl)-3,6-dithia-2-azabicyclo[3.3.0]octa-1,4,7-trien-4-yl}amine]	10 to 40	10 to 40
Cc1c(C[C@@H](N)C2CC(F)(F)C2)sc2c(NCc3cccs3)snc12 [Compound 84, 7-[(R)-2-amino-2-(3,3-difluorocyclobutyl)eth-yl]-8-methyl-4-thenylamino-3,6-dithia-2-azabicyclo[3.3.0]octa-1,4,7-triene]	0.501 to 5	5 to 10
CSc1c(C[C@H](C)N)sc2c(NCc3ccco3)snc12 [Compound 85, 7-[(S)-2-aminopropyl]-4-(furfurylamino)-8-(methylthio)-3,6-dithia-2-azabicyclo[3.3.0]octa-1,4,7-triene]	5 to 10	10 to 40
C[C@H](N)Cc1sc2c(NCc3cccs3)snc2c1CO [Compound 87, {7-[(S)-2-aminopropyl]-4-thenylamino-3,6-dithia-2-azabicyclo[3.3.0]octa-1,4,7-trien-8-yl}methanol]	10 to 40	10 to 40
CC(=O)Nc1csc2c(NCc3cccs3)snc12 [Compound 88, N-(4-thenylamino-3,6-dithia-2-azabicyclo[3.3.0]octa-1,4,7-trien-8-yl)acetamide]	10 to 40	10 to 40
N[C@H](Cc1sc2c(NCc3cccs3)snc2c1Cl)C(CO)CO [Compound 89, 2-{(R)-1-amino-2-(8-chloro-4-thenylamino-3,6-dithia-2-azabicyclo[3.3.0]octa-1,4,7-trien-7-yl)ethyl}-1,3-propanediol]	5 to 10	0.501 to 5
CSc1csc2c(NCc3ccco3)snc12 [Compound 90, (furfuryl){8-(methylthio)-3,6-dithia-2-azabicyclo[3.3.0]octa-1,4,7-trien-4-yl}amine]	10 to 40	10 to 40
C[C@H](F)[C@H](N)Cc1sc2c(NCc3sccc3F)snc2c1Br [Compound 93, 7-[(2R,3S)-2-amino-3-fluorobutyl]-8-bromo-4-{[(3-fluoro-2-thienyl)methyl]amino}-3,6-dithia-2-azabicyclo[3.3.0]octa-1,4,7-triene]	0.501 to 5	0.501 to 5
C[C@@H](F)[C@H](N)Cc1sc2c(NCc3sccc3F)snc2c1Cl [Compound 94, 7-[(2R,3R)-2-amino-3-fluorobutyl]-8-chloro-4-{[(3-fluoro-2-thienyl)methyl]amino}-3,6-dithia-2-azabicyclo[3.3.0]octa-1,4,7-triene]	5 to 10	5 to 10
C[C@H](F)[C@H](N)Cc1sc2c(NCc3sccc3F)snc2c1Cl [Compound 95, 7-[(2R,3S)-2-amino-3-fluorobutyl]-8-chloro-4-{[(3-fluoro-2-thienyl)methyl]amino}-3,6-dithia-2-azabicyclo[3.3.0]octa-1,4,7-triene]	0.501 to 5	0.501 to 5
C[C@H](F)[C@H](N)Cc1sc2c(NCc3ccc(F)s3)snc2c1Cl [Compound 96, 7-[(2R,3S)-2-amino-3-fluorobutyl]-8-chloro-4-{[(5-fluoro-2-thienyl)methyl]amino}-3,6-dithia-2-azabicyclo[3.3.0]octa-1,4,7-triene]	0.501 to 5	5 to 10
C=Cc1c(C[C@@H](N)[C@H](C)F)sc2c(NCc3cccs3)snc12 [Compound 97, 7-[(2R,3S)-2-amino-3-fluorobutyl]-4-thenylamino-8-vinyl-3,6-dithia-2-azabicyclo[3.3.0]octa-1,4,7-triene]	0.501 to 5	0.501 to 5
C[C@H](N)C(F)(F)c1sc2c(NCc3cccs3)snc2c1Cl [Compound 98, 7-[(S)-2-amino-1,1-difluoropropyl]-8-chloro-4-thenylamino-3,6-dithia-2-azabicyclo[3.3.0]octa-1,4,7-triene]	0.501 to 5	0.501 to 5
C[C@H](N)C(F)(F)c1sc2c(NCc3cccs3)snc2c1Br [Compound 99, 5-[(2S)-2-amino-1,1-difluoropropyl]-6-bromo-N-(thiophen-2-ylmethyl)thieno[3,2-c][1,2]thiazol-3-amine]	0.501 to 5	0.501 to 5
N[C@@H](COC1CC1)Cc1sc2c(NCc3cccs3)snc2c1Br [Compound 100, 7-[(R)-2-amino-3-cyclopropoxypropyl]-8-bromo-4-thenylamino-3,6-dithia-2-azabicyclo[3.3.0]octa-1,4,7-triene]	0.501 to 5	0.501 to 5
N[C@H](Cc1sc2c(NCc3ccco3)snc2c1Cl)C(F)F [Compound 101, 7-[(R)-2-amino-3,3-difluoropropyl]-8-chloro-4-(furfurylamino)-3,6-dithia-2-azabicyclo[3.3.0]octa-1,4,7-triene]	0.501 to 5	0.501 to 5
C[C@H](N)C(O)c1sc2c(NCc3cccs3)snc2c1Cl (stereo partly drawn) [Compound 102, (2S)-2-amino-1-(8-chloro-4-thenylamino-3,6-dithia-2-azabicyclo[3.3.0]octa-1,4,7-trien-7-yl)-1-propanol]	10 to 40	10 to 40
C[C@H](N)C(O)c1sc2c(NCc3cccs3)snc2c1Br (stereo partly drawn) [Compound 103, (2S)-2-amino-1-{6-bromo-3-[(thiophen-2-ylmethyl)amino]thieno[3,2-c][1,2]thiazol-5-yl}propan-1-ol]	10 to 40	10 to 40
N[C@@H](CF)Cc1sc2c(NCc3nccs3)snc2c1Br [Compound 104, 7-[(R)-2-amino-3-fluoropropyl]-8-bromo-4-{[(1,3-thiazol-2-yl)methyl]amino}-3,6-dithia-2-azabicyclo[3.3.0]octa-1,4,7-triene]	0.501 to 5	0.501 to 5
C[C@H](F)[C@H](N)Cc1sc2c(NCc3nccs3)snc2c1Br [Compound 105, 7-[(2R,3S)-2-amino-3-fluorobutyl]-8-bromo-4-{[(1,3-thiazol-2-yl)methyl]amino}-3,6-dithia-2-azabicyclo[3.3.0]octa-1,4,7-triene]	0.101 to 0.5	0.101 to 0.5
C[C@@H](F)[C@H](N)Cc1sc2c(NCc3nccs3)snc2c1Br [Compound 106, 7-[(2R,3R)-2-amino-3-fluorobutyl]-8-bromo-4-{[(1,3-thiazol-2-yl)methyl]amino}-3,6-dithia-2-azabicyclo[3.3.0]octa-1,4,7-triene]	0.501 to 5	0.501 to 5
C[C@H](N)C(F)(F)c1sc2c(NCc3ccco3)snc2c1Cl [Compound 110, 7-[(S)-2-amino-1,1-difluoropropyl]-8-chloro-4-(furfurylamino)-3,6-dithia-2-azabicyclo[3.3.0]octa-1,4,7-triene]	0.501 to 5	0.501 to 5
N[C@H](Cc1sc2c(NCc3ccco3)snc2c1Br)C(F)F [Compound 111, 7-[(R)-2-amino-3,3-difluoropropyl]-8-bromo-4-(furfurylamino)-3,6-dithia-2-azabicyclo[3.3.0]octa-1,4,7-triene]	0.501 to 5	0.501 to 5
Brc1csc2c(NCc3cccs3)snc12 [Compound 113, (thenyl)(8-bromo-3,6-dithia-2-azabicyclo[3.3.0]octa-1,4,7-trien-4-yl)amine]	10 to 40	10 to 40
COC(c1sc2c(NCc3cccs3)snc2c1Br)[C@H](C)N (stereo partly drawn) [Compound 114, 5-[(2S)-2-amino-1-methoxypropyl]-6-bromo-N-(thiophen-2-ylmethyl)thieno[3,2-c][1,2]thiazol-3-amine]	10 to 40	10 to 40
